Drawing on the kinase profiling compilation of Christmann-Franck et al. (2016), this text covers kinase still bound, per cent of control for 2 molecules.

Common to all, as to assay: KINOMEscan competition binding
Common to all, as to settings: compound 10.0 µM

Assay [1] concerns the target TNK2 (human) (UniProt Q07912).
Assay [2] has as its target SIK2 (human) (UniProt Q9H0K1).
The target of assay [3] is SIK1 (human) (UniProt P57059).
Assay [4] addresses SRPK3 (human) (UniProt Q9UPE1).
For assay [5], the target named is RPS6KA1 KD2 (human) (UniProt Q15418).
Assay [6] addresses RIOK1 (human) (UniProt Q9BRS2).
Assay [7] concerns the target TYK2 JH2 pseudokinase (human) (UniProt P29597).
Assay [8] concerns EGFR (human), P00533 [G719C; 746-750 del].
For assay [9], the system named is EGFR (human), P00533 [P753S; 747-752 del].
In assay [10] the test system is ABL1 (human), P00519 [F317I].
Assay [11] deals with KIT (human), P10721 [V559D].
The subject of assay [12] is FLT3 (human), P36888 [D835H].
For assay [13], the target named is LCK (human) (UniProt P06239).
Assay [14] addresses BMP2K (human) (UniProt Q9NSY1).
Assay [15] concerns the target FRK (human) (UniProt P42685).
The target of assay [16] is RPS6KA6 KD2 (human) (UniProt Q9UK32).
The test system of assay [17] is EGFR (human), P00533 [A750P; 747-749 del].
Assay [18] deals with SRPK1 (human) (UniProt Q96SB4).
Assay [19] relates to ABL1 (human), P00519 [F317L].
The target in assay [20] is CSF1R (human) (UniProt P07333).
The subject of assay [21] is KIT (human), P10721 [D816V].
Assay [22] addresses BLK (human) (UniProt P51451).
In assay [23] the target is RIOK3 (human) (UniProt O14730).
Sequence of RIOK3 (human) (O14730 whole entry, looked up): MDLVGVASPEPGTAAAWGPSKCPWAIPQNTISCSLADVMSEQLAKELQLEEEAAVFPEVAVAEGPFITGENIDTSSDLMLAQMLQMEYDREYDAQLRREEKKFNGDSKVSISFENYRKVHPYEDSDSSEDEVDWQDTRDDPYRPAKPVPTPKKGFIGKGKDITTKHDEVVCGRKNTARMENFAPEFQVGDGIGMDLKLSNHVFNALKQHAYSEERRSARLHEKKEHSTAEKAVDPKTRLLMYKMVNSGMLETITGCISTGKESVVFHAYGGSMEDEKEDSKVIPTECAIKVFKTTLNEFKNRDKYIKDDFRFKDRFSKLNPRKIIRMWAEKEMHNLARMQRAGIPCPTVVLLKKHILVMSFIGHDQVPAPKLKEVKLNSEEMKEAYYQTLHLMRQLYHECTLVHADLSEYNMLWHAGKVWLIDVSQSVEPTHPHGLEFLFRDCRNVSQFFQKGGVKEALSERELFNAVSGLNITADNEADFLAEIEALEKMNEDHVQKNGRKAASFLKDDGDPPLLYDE
The subject of assay [24] is FLT3 (human), P36888 [D835Y].
Assay [25] concerns the target PIP5K1A (human) (UniProt Q99755).
Assay [26] concerns the target CHEK1 (human) (UniProt O14757).
Assay [27] deals with EGFR (human), P00533 [L858R].
The target of assay [28] is KIT (human) (UniProt P10721).
The test system of assay [29] is EGFR (human), P00533 [747-751 del / S ins].
The test system of assay [30] is EGFR (human), P00533 [L861Q].
Assay [31] has as its target GAK (human) (UniProt O14976).
Assay [32] addresses PDGFRB (human) (UniProt P09619).
In assay [33] the test system is EGFR (human), P00533 [752-759 del].
In assay [34] the target is ULK1 (human) (UniProt O75385).
For assay [35], the system named is FLT3 (human), P36888 [N841I].
Assay [36] deals with SLK (human) (UniProt Q9H2G2).
Assay [37] concerns FLT3 (human), P36888 [ITD].
Assay [38] concerns the target PIK3CD (human) (UniProt O00329).
Assay [39] deals with MAP2K4 (human) (UniProt P45985).
Sequence of MAP2K4 (human) (P45985 whole entry, looked up): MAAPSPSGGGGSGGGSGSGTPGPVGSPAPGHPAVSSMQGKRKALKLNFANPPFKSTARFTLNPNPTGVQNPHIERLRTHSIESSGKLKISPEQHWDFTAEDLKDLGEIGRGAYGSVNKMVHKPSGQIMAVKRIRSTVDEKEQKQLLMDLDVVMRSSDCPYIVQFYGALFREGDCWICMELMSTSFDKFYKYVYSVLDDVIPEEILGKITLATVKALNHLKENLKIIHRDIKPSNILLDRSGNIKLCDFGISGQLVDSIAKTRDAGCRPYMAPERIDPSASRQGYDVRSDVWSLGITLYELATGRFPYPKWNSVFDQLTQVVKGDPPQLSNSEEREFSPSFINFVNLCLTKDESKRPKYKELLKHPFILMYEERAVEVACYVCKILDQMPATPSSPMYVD
For assay [40], the target named is MAP2K2 (human) (UniProt P36507).
Sequence of MAP2K2 (human) (P36507 whole entry, looked up): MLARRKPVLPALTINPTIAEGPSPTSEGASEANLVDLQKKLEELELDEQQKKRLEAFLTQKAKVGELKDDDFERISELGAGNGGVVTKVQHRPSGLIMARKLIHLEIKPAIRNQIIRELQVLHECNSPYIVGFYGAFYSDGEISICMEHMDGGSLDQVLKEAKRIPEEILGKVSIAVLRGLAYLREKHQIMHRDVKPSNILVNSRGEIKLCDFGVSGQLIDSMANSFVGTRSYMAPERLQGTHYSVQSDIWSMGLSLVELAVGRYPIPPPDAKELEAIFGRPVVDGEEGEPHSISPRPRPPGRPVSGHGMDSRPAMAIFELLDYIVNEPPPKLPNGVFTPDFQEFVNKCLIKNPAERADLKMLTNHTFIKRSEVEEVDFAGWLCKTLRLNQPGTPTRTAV
In assay [41] the target is PIK3C2B (human) (UniProt O00750).
In assay [42] the test system is EGFR (human), P00533 [G719S].
The target of assay [43] is PIK3CB (human) (UniProt P42338).
Sequence of PIK3CB (human) (P42338 whole entry, looked up): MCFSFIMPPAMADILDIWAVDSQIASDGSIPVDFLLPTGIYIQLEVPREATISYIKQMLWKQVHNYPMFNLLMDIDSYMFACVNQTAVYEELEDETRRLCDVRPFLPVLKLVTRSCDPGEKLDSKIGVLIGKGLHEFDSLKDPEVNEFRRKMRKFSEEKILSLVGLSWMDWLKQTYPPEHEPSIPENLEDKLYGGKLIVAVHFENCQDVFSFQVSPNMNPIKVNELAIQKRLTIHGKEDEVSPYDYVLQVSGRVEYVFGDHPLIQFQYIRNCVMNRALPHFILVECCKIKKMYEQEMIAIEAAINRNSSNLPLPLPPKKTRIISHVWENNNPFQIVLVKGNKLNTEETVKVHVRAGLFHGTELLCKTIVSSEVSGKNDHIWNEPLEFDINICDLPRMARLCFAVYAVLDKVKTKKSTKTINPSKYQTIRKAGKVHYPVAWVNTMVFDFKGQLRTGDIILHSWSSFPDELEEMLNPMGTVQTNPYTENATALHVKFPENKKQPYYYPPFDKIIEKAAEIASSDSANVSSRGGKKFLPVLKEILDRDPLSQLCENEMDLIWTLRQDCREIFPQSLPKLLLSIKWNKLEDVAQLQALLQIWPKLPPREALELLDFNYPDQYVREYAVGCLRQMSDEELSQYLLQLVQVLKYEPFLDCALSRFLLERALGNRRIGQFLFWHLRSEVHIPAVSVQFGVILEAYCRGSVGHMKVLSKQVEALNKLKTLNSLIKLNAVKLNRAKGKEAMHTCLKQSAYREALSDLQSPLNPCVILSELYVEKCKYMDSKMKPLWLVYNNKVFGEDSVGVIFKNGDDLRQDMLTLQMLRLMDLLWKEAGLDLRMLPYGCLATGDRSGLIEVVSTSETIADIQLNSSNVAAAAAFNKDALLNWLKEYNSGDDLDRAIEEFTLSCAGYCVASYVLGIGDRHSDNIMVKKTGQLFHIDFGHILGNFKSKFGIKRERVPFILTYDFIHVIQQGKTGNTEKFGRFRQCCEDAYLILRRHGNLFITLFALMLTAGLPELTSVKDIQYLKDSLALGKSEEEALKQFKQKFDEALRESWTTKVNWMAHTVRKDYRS

Sequence of PDGFRB (human) (P09619 whole entry, looked up): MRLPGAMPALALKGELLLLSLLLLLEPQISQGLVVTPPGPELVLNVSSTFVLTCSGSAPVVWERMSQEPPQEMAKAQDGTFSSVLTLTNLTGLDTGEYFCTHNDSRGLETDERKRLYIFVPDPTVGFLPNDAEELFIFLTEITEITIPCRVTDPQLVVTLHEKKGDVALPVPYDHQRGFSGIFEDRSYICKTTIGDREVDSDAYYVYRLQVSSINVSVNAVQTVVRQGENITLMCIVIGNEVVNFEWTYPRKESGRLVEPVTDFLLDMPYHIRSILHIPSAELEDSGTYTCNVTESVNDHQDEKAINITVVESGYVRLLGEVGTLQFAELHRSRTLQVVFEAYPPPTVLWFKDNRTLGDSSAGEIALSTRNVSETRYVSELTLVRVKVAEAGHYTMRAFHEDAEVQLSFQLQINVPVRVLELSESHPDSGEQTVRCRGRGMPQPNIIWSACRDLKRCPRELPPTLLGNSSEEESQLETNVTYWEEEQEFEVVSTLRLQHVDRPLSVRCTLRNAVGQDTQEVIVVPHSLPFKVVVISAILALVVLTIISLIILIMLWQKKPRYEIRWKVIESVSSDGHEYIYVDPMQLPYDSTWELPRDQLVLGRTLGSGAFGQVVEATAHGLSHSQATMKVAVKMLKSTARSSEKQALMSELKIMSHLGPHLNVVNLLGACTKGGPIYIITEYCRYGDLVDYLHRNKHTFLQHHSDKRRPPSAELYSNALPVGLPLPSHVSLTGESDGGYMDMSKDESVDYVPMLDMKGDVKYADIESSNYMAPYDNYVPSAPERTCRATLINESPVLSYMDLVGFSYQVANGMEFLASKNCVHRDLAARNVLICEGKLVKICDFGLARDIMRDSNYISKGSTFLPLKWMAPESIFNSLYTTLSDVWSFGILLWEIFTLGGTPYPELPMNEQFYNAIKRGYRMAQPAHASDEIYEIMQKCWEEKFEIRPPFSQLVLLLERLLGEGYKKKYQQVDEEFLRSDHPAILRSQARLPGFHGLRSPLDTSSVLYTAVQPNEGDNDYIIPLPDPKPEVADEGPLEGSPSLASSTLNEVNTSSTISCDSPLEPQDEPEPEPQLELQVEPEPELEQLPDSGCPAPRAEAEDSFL
Sequence of PIK3CD (human) (O00329 whole entry, looked up): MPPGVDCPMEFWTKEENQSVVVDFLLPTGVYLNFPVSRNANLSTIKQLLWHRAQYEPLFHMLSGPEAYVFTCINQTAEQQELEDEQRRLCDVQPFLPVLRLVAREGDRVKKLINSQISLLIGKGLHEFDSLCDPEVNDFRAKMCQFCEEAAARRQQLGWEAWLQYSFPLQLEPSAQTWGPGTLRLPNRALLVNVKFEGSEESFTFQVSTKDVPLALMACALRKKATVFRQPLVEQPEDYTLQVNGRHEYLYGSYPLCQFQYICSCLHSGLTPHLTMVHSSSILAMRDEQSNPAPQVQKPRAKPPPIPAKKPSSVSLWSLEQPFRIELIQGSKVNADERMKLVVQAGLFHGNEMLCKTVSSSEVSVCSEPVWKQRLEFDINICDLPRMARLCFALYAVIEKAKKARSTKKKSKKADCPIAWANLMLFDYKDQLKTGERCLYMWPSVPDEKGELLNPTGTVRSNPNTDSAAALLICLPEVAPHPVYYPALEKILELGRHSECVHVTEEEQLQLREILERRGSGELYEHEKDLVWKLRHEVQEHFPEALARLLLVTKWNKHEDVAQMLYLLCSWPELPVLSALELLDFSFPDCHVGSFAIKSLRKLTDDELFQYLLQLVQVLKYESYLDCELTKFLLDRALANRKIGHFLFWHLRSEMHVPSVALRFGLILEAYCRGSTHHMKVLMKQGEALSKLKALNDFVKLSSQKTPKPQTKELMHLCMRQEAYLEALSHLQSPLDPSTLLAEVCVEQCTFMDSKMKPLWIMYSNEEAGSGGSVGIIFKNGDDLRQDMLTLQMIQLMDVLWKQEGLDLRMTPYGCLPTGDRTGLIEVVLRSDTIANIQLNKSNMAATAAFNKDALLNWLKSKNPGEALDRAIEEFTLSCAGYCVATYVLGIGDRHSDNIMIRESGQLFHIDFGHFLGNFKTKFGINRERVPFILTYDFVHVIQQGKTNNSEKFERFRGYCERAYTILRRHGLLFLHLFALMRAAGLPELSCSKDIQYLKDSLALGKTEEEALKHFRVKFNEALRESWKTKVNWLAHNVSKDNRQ
Sequence of BLK (human) (P51451 whole entry, looked up): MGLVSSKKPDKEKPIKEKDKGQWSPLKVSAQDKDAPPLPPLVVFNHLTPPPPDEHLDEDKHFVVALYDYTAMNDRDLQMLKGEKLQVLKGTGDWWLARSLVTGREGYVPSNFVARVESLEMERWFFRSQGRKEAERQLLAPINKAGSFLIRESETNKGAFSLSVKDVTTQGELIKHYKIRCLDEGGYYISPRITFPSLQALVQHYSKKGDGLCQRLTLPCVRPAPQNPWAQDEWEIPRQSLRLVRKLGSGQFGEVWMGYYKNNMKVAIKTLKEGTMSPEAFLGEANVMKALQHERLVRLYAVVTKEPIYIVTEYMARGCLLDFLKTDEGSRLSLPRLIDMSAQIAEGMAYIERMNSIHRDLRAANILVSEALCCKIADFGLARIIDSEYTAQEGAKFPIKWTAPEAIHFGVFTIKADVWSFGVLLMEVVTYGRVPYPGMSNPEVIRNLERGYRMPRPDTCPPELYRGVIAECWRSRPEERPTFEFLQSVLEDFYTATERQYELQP

As to `COc1cc(N2CCN(C)CC2)ccc1Nc1ncc2c(n1)N(c1ccccc1)CCC(=O)N2`, the kinase still bound, per cent of control is 5% in [1]; 26% in assay [2]; 12% in [3]; 30% in assay [4]; 33% in [5]; 27% in [6]. Further, the kinase still bound, per cent of control worked out at 28% in [7]; 12% in [8]; 17% in assay [9]; 17% in [10]; 4.6% in assay [11]; 18% in assay [12]. The kinase still bound, per cent of control in [13] came out at 25%; in assay [14], 15%; in assay [15], 2.8%; in assay [16] it was 18%; in assay [17], 5.2%; in assay [18], 29%. Moreover, the kinase still bound, per cent of control came to 16% in assay [19]; 16% in [20]; 2.4% in assay [21]; 21% in assay [22]; 23% in [23]; 8.6% in assay [24]. Besides, the kinase still bound, per cent of control in assay [25] stood at 34%; in [26], 27%; in assay [27], 31%; in assay [28], 5.7%; in assay [29] it was 11%; in assay [30] it was 21%. In addition, the kinase still bound, per cent of control in assay [31] is 2%; in assay [32], 1.1%; in assay [33], 14%; in assay [34], 24%; in assay [35], 23%; in assay [36] it was 29%. The kinase still bound, per cent of control in assay [37] was determined as 31%.

As for `O=C1NC(=O)C(=Cc2ccc(-c3ccc(S(=O)(=O)N4CCNCC4)cc3)o2)C(=O)N1`, the kinase still bound, per cent of control in assay [38] was found to be 0%; in [39], 12%; in assay [40], 17%; in assay [41], 0.6%; in assay [9] it was 16%; in [42] it was 6.9%. Besides, the kinase still bound, per cent of control was found to be 17% in [29] and 0% in [43].
